# Compound: C1=CC2=C(C=C(C(=C2N=C1)O)N=NC3=CC4=C(C=C3)C=C(C=C4)S(=O)(=O)O)S(=O)(=O)O + COc1cccc2cc(-c3nc([C@H]4CC[C@H](C(=O)O)CC4)n4ncnc(N)c34)[nH]c12 [OSI-027] (partner 0.5 µM)
# Test: relative viability (nuclei count vs DMSO), 5 days (fraction); higher = more cells survive
# Conditions: first compound 8 µM
# How it was run: (§1)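 One day after seeding in 1536-well plates, lung cancer cell lines were dosed by pin tool. Dosing was either single-drug or a fixed anchor-drug dose plus five library-drug doses (not always all listed) in √10 steps. After 5 days, nuclei were stained in one fix-and-stain step and counted on 4× images, and relative viability is the nuclei count of treated wells over that of vehicle wells, given as the median of duplicate plates.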
row,Cell Line,relative viability
1,NCI-H520,0.22
2,NCI-H2126,0.632
3,EMC-BAC-2,0.343
4,NCI-H2085,0.842
5,HCC-366,0.948
6,NCI-H1666,0.847
7,NCI-H596,0.663
8,LK-2,0.202
9,NCI-H2087,0.682
10,NCI-H1648,0.185
11,SK-MES-1,0.661
12,H3255,0.655
13,COR-L23,0.802
14,COR-L 105,0.722
15,LOU-NH91,0.733
16,ChaGo-K-1,0.382
17,NCI-H2170,0.689
18,NCI-H2405,0.6
19,HOP-62,0.836
20,HCC-44,0.601
21,NCI-H522,0.592
22,LU99A,0.296
23,BEN,0.292
24,HARA,0.48
25,SW 900,0.424
26,HCC-78,0.348
27,NCI-H1563,0.727

# Compound: O=C(NC1CCNCC1)c1n[nH]cc1NC(=O)c1c(Cl)cccc1Cl [AT-7519] + N=C(N)NC(=N)NCCc1ccccc1 [Phenformin] (partner 250 µM)
# Test: as above
# Conditions: first compound 0.01 µM
# How it was run: as §1
row,Cell Line,relative viability
1,NCI-H2342,0.595
2,NCI-H1623,0.583
3,NCI-H727,0.527
4,NCI-H1650,0.466
5,NCI-H1993,0.544
6,SW 1573,0.421
7,NCI-H838,0.534
8,LCLC-103H,0.32
9,NCI-H520,0.66
10,NCI-H2126,0.552
11,EMC-BAC-2,0.52
12,NCI-H2085,0.744
13,HCC-366,0.624
14,NCI-H1666,0.59
15,NCI-H596,0.732
16,LK-2,0.278
17,NCI-H2087,0.472

row,Cell Line,relative viability
1,SK-MES-1,0.655
2,H3255,0.489
3,COR-L23,0.459
4,COR-L 105,0.451
5,LOU-NH91,0.674
6,ChaGo-K-1,0.459
7,NCI-H2170,0.412
8,NCI-H2405,0.375
9,HOP-62,0.706
10,HCC-44,0.15
11,A549,0.131
12,LU99A,0.826
13,BEN,0.522
14,HARA,0.415
15,SW 900,0.697
16,HCC-78,0.712
17,NCI-H1563,0.66

# Same assay, conditions: first compound 0.03162 µM
row,Cell Line,relative viability
1,NCI-H2342,0.605
2,NCI-H1623,0.567
3,NCI-H727,0.584
4,NCI-H1650,0.427
5,NCI-H1993,0.574
6,SW 1573,0.349
7,NCI-H838,0.552
8,LCLC-103H,0.296
9,NCI-H520,0.669
10,NCI-H2126,0.494
11,EMC-BAC-2,0.524
12,NCI-H2085,0.7
13,HCC-366,0.616
14,NCI-H1666,0.568
15,NCI-H596,0.653
16,LK-2,0.482
17,NCI-H2087,0.442
18,SK-MES-1,0.651
19,H3255,0.384
